Biological target: T1, human ANO6 (variant 5) (Homo sapiens, UniProt Q4KMQ2)
T1 construct: expressed in transfected cells; host or cells: Fischer rat thyroid (FRT) cells
T1 sequence (Q4KMQ2 1-931 isoform Q4KMQ2-2): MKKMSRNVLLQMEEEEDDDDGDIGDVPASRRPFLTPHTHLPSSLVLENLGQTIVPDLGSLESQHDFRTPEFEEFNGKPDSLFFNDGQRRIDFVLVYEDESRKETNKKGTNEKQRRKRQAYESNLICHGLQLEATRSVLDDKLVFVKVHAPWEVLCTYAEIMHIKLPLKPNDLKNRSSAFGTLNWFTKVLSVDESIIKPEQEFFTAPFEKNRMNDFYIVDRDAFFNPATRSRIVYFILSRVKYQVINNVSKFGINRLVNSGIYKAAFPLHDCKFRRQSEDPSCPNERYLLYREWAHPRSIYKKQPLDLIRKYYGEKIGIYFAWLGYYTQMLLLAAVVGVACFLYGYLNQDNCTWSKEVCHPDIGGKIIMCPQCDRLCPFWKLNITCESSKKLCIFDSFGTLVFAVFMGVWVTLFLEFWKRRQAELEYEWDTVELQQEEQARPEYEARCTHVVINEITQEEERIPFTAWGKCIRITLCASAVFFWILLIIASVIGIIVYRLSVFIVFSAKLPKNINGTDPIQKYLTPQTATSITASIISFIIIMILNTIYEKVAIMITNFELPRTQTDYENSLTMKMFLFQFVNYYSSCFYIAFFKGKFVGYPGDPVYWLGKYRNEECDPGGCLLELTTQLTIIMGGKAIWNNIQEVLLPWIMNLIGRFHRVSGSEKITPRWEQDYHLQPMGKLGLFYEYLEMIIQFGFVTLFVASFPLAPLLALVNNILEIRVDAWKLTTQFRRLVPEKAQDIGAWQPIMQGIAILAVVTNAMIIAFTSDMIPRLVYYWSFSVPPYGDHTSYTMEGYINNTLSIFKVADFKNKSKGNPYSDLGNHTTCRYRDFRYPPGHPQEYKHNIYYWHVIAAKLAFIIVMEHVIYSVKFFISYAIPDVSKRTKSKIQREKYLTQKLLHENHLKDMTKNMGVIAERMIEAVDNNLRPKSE
Test: Lact C2 assay (measuring phosphatidylserine externalization scramblase function)
Format: cell-based
Conditions: FRT, FRT cells expressing human ANO6 (variant 5), ionomycin 10 µM, Lact-C2-GFP fluorescence, average of three tests; for inhibition at 0.05 µM: compound 50 nM, read-out: % Inhibition 50 nM; for inhibition at 1 µM: compound 1 µM, read-out: % Inhibition 1 µM
In short: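 Cells were pretreated 10 min with compound (50 nM, 100 nM, 1 µM; 1% DMSO), then given 10 µM ionomycin for 10 min. Surface phosphatidylserine was stained with 500 nM Lact-C2-GFP (10 min, 37 °C), fixed and imaged. Inhibition was scaled between untreated (100%) and ionomycin-alone (0%) wells.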

SMILES	inhibition at 0.05 µM [%]	inhibition at 1 µM [%]
CC(C)OC(=O)c1ccc2nc(-c3cccc(Nc4ccc(-c5cccnn5)cc4)c3)[nH]c2c1 [Example 111, isopropyl 2-(3-((4-(pyridazin-3-yl)phenyl)amino)phenyl)-1H-benzo[d]imidazole-6-carboxylate]	30 to 60	> 60
Cc1cc2nc(-c3cccc(Nc4ccc(-c5cccnn5)cc4)c3)[nH]c2cc1F [Example 114, 3-(6-fluoro-5-methyl-1H-benzo[d]imidazol-2-yl)-N-(4-pyridazin-3-ylphenyl)aniline]	30 to 60	> 60
Clc1cccc2nc(-c3cccc(Nc4ccc(-c5cccnn5)cc4)c3)[nH]c12 [Example 115, 3-(7-chloro-1H-benzo[d]imidazol-2-yl)-N-(4-pyridazin-3-ylphenyl)aniline]		> 60
Clc1cc2[nH]c(-c3cccc(Nc4ccc(-c5ccncn5)cc4)c3)nc2cn1 [Example 117, 3-(6-chloro-1H-imidazo[4,5-c]pyridin-2-yl)-N-(4-pyrimidin-4-ylphenyl)aniline]		> 60
FC(F)(F)Oc1ccc2nc(-c3cccc(Nc4ncc(-c5ccccn5)cn4)c3)[nH]c2c1 [Example 118, 5-(2-pyridyl)-N-[3-[6-(trifluoromethoxy)-1H-benzo[d]imidazol-2-yl]phenyl]pyrimidin-2-amine]	> 60	> 60
Clc1cc2[nH]c(-c3cccc(Nc4ccc(-c5ccccn5)cc4)c3)nc2cn1 [Example 119, 3-(6-chloro-1H-imidazo[4,5-c]pyridin-2-yl)-N-[4-(2-pyridyl)phenyl]aniline]	30 to 60	> 60
FC(F)(F)Oc1cc2nc(-c3cccc(Nc4ncc(-c5cccnn5)cn4)c3)[nH]c2cc1Cl [Example 120, N-[3-[6-chloro-5-(trifluoromethoxy)-1H-benzo[d]imidazol-2-yl]phenyl]-5-pyridazin-3-yl-pyrimidin-2-amine]	> 60	> 60
c1cc(Nc2ncc(-c3ccoc3)cn2)cc(-c2nc3ccccc3[nH]2)c1 [Example 163, N-[3-(1H-benzo[d]imidazol-2-yl)phenyl]-5-(3-furyl)pyrimidin-2-amine]		> 60
c1cc(Nc2ncc(-c3ccsc3)cn2)cc(-c2nc3ccccc3[nH]2)c1 [Example 164, N-[3-(1H-benzo[d]imidazol-2-yl)phenyl]-5-(3-thienyl)pyrimidin-2-amine]	30 to 60	> 60
c1cc(Nc2ccc(-c3ncco3)cc2)cc(-c2nc3ccccc3[nH]2)c1 [Example 165, 3-(1H-benzo[d]imidazol-2-yl)-N-(4-oxazol-2-ylphenyl)aniline]	30 to 60	> 60
c1cc(Nc2ccc(-c3cscn3)cc2)cc(-c2nc3ccccc3[nH]2)c1 [Example 166, 3-(1H-benzo[d]imidazol-2-yl)-N-(4-thiazol-4-ylphenyl)aniline]	> 60	> 60
c1cc(Nc2ncc(-c3ncco3)cn2)cc(-c2nc3ccccc3[nH]2)c1 [Example 171, N-[3-(1H-benzo[d]imidazol-2-yl)phenyl]-5-oxazol-2-yl-pyrimidin-2-amine]		30 to 60
CN(C)CCOc1ccc(-c2nc3ccc(C(F)(F)F)cc3[nH]2)cc1Nc1ccc(-c2cnccn2)cc1 [Example 174, 2-[2-(dimethylamino)ethoxy]-N-(4-pyrazin-2-ylphenyl)-5-[6-(trifluoromethyl)-1H-benzo[d]imidazol-2-yl]aniline]		30 to 60
CN1CCN(CCOc2ccc(-c3nc4ccc(C(F)(F)F)cc4[nH]3)cc2Nc2ccc(-c3cnccn3)cc2)CC1 [Example 175, 2-[2-(4-methylpiperazin-1-yl)ethoxy]-N-(4-pyrazin-2-ylphenyl)-5-[6-(trifluoromethyl)-1H-benzo[d]imidazol-2-yl]aniline]		> 60
CN1CCN(c2ccc(-c3nc4ccc(C(F)(F)F)cc4[nH]3)cc2Nc2ncc(-c3cccnn3)cn2)CC1 [Example 176, N-(2-(4-methylpiperazin-1-yl)-5-(6-(trifluoromethyl)-lH-benzo[d]imidazol-2-yl)phenyl)-5-(pyridazin-3-yl)pyrimidin-2-amine]		30 to 60
Cc1cc(-c2cccnn2)ccc1Nc1cccc(-c2nc3ccccc3[nH]2)c1 [Example 203, N-(3-(1H-benzo[d]imidazol-2-yl)phenyl)-2-methyl-4-(pyridazin-3-yl)aniline]	30 to 60	> 60

SMILES	inhibition at 0.05 µM [%]	inhibition at 1 µM [%]
Cc1cc(Nc2cccc(-c3nc4ccccc4[nH]3)c2)ccc1-c1cccnn1 [Example 204, N-(3-(1H-benzo[d]imidazol-2-yl)phenyl)-3-methyl-4-(pyridazin-3-yl)aniline]		> 60
Nc1cc(Nc2cccc(-c3nc4ccccc4[nH]3)c2)ccc1-c1cccnn1 [Example 207, N^1-(3-(1H-benzo[d]imidazol-2-yl)phenyl)-4-(pyridazin-3-yl)benzene-1,3-diamine]		> 60
COc1cc(Nc2cccc(-c3nc4ccccc4[nH]3)c2)ccc1-c1cccnn1 [Example 208, N-(3-(1H-benzo[d]imidazol-2-yl)phenyl)-3-methoxy-4-(pyridazin-3-yl)aniline]		> 60
COc1cc(-c2cccnn2)ccc1Nc1cccc(-c2nc3ccccc3[nH]2)c1 [Example 210, N-(3-(1H-benzo[d]imidazol-2-yl)phenyl)-2-methoxy-4-(pyridazin-3-yl)aniline]		30 to 60
CN(C)c1ccc2nc(-c3cccc(Nc4ccc(-c5cccnn5)cc4)c3)[nH]c2c1 [Example 217, N,N-dimethyl-2-(3-((4-(pyridazin-3-yl)phenyl)amino)phenyl)-1H-benzo[d]imidazol-6-amine]	30 to 60	> 60
Brc1cc2[nH]c(-c3cccc(Nc4ccc(-c5cccnn5)cc4)c3)nc2cn1 [Example 218, 3-(6-bromo-1H-imidazo[4,5-c]pyridin-2-yl)-N-(4-(pyridazin-3-yl)phenyl)aniline]	30 to 60	
c1cc(Nc2ccc(-c3cccnn3)cc2)cc(-c2nc3ncccc3[nH]2)c1 [Example 219, 3-(1H-imidazo[4,5-b]pyridin-2-yl)-N-(4-(pyridazin-3-yl)phenyl)aniline]		> 60
c1ccc(COc2ccc3nc(-c4cccc(Nc5ccc(-c6cccnn6)cc5)c4)[nH]c3c2)cc1 [Example 222, 3-(6-(benzyloxy)-1H-benzo[d]imidazol-2-yl)-N-(4-(pyridazin-3-yl)phenyl)aniline]	> 60	> 60
COc1ccc2nc(-c3cccc(Nc4ccc(-c5cccnn5)cc4)c3)[nH]c2c1 [Example 223, 3-(6-methoxy-1H-benzo[d]imidazol-2-yl)-N-(4-(pyridazin-3-yl)phenyl)aniline]	> 60	> 60
Clc1cc2nc(-c3cccc(Nc4ccc(-c5cccnn5)cc4)c3)[nH]c2cc1Cl [Example 225, 3-(5,6-dichloro-1H-benzo[d]imidazol-2-yl)-N-(4-(pyridazin-3-yl)phenyl)aniline]	> 60	
Clc1ccc2nc(-c3cccc(Nc4ccc(-c5cccnn5)cc4)c3)[nH]c2c1 [Example 226, 3-(6-chloro-1H-benzo[d]imidazol-2-yl)-N-(4-(pyridazin-3-yl)phenyl)aniline]	> 60	
O=[N+]([O-])c1ccc2nc(-c3cccc(Nc4ccc(-c5cccnn5)cc4)c3)[nH]c2c1 [Example 227, 3-(6-nitro-1H-benzo[d]imidazol-2-yl)-N-(4-(pyridazin-3-yl)phenyl)aniline]	> 60	> 60
c1ccc(CNc2ccc3nc(-c4cccc(Nc5ccc(-c6cccnn6)cc5)c4)[nH]c3c2)cc1 [Example 229, N-benzyl-2-(3-((4-(pyridazin-3-yl)phenyl)amino)phenyl)-1H-benzo[d]imidazol-6-amine]		> 60
FC(F)(F)Oc1ccc2nc(-c3cccc(Nc4ccc(-c5cccnn5)cc4)c3)[nH]c2c1 [Example 230, N-(4-(pyridazin-3-yl)phenyl)-3-(6-(trifluoromethoxy)-1H-benzo[d]imidazol-2-yl)aniline]	> 60	> 60
N#Cc1ccc2nc(-c3cccc(Nc4ccc(-c5cccnn5)cc4)c3)[nH]c2c1 [Example 231, 2-(3-((4-(pyridazin-3-yl)phenyl)amino)phenyl)-1H-benzo[d]imidazole-6-carbonitrile]		> 60
